The numbers were not newly measured in patent publication US20220000797A1, “CLEAR PROPOFOL INJECTION AND PREPARATION METHOD THEREFOR” ((BIKA BIOTECHNOLOGY (GUANGZHOU) CO., LTD), priority 2018, published 2022), which cites them from elsewhere.

Read-outs that look alike come from different tables or passages of the source.

As for `O=C([O-])O.[Na+]` [sodium bicarbonate], the injection pain entry is listed as “can reduce injection pain” (final concentration of sodium bicarbonate approaches 1.4%) and “cannot reduce injection pain” (low concentration of sodium bicarbonate (0.25%)).
